Measurements: PubChem BioAssay (NCI)
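Assay format: 96-well plates, 48-hour exposure. TGI denotes the concentration required for complete inhibition of growth.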

Tests used:
Test in all cases: NCI anticancer screen, dose series, 48 h
CAKI-1 renal = tested on: CAKI-1 renal
DU-145 prostate = tested on: DU-145 prostate
HOP-62 NSCLC = tested on: HOP-62 NSCLC
IGROV1 ovarian = tested on: IGROV1 ovarian
OVCAR-5 ovarian = tested on: OVCAR-5 ovarian
SN12C renal = tested on: SN12C renal
SF-539 CNS = tested on: SF-539 CNS

Row | Compound | TGI (CAKI-1 renal) [µM] | TGI (DU-145 prostate) [µM] | TGI (HOP-62 NSCLC) [µM] | TGI (IGROV1 ovarian) [µM] | TGI (OVCAR-5 ovarian) [µM] | TGI (SN12C renal) [µM] | TGI (SF-539 CNS) [µM]
1 | O=C1CCC[C@@H]2NC[C@@H](c3ccc4c(c3)OCO4)[C@H]12 | > 25 | > 25 | > 25 | > 25 | > 25 | > 25 | –
2 | Cc1nc2c(sc(=S)n2-c2ccccc2)c2nc3ncccc3n12 | > 100 | > 100 | 90.3 | > 100 | > 100 | > 100 | –
3 | COc1cc(-c2cc(=O)c3cc4c(cc3[nH]2)OCO4)cc(OC)c1O | > 10 | > 10 | > 10 | > 10 | > 10 | > 10 | > 10
4 | C[N+]1=C2[B-](C(C)(C)C)=[N+](C(C)(C)C)[B-]2(C(C)(C)C)[N+](C)=C2[B-](C(C)(C)C)=[N+](C(C)(C)C)[B-]21C(C)(C)C (configuration not stated) | > 100 | > 100 | > 100 | > 100 | > 100 | > 100 | –
5 | NC(C(F)(F)F)(C(F)(F)F)P(=O)(Cc1ccccc1)Cc1ccccc1 | > 100 | > 100 | > 100 | > 100 | > 100 | > 100 | > 100
6 | CCCc1cc(=O)c2c(C)c3[nH]c4ccc(Cl)cc4c3c(C)c2[nH]1 | 4.37 | 18.9 | 6.15 | 4.7 | 5.58 | 5.31 | 3.56
7 | CC1=C2C(=O)NN=C2CCN1c1ccc(Br)cc1 | > 100 | > 100 | > 100 | > 100 | > 100 | > 100 | > 100
8 | CCN(CC)CCc1c2c(nc3ccccc13)C(=O)c1cccnc1C2=O | 4.9 | 1.84 | 11.8 | 5.53 | 25.4 | 5.92 | –
9 | Cc1ccc(C(=O)Nc2ccc(CP(=O)(O)O)cc2CP(=O)(O)O)cc1NC(=O)c1cccc(N)c1 | > 100 | > 100 | > 100 | > 100 | > 100 | > 100 | > 100
10 | Brc1ccc(CCNCCN2CCCCC2)cc1 | 29.2 | > 100 | 34.9 | 31 | 36.2 | 58.5 | 23.3
11 | COc1ccc(-c2cc(-c3ccco3)c(C#N)c(=S)n2C2OC(COC(C)=O)C(OC(C)=O)C(OC(C)=O)C2OC(C)=O)cc1 (configuration not stated) | 13.9 | 20.3 | 8.88 | 29.5 | 30.9 | 24 | 4.56
12 | O=C(NNC(=S)Nc1ccc(Cl)cc1)c1cc(-c2ccccc2)nc2ccccc12 | 20.6 | 16.5 | 19.6 | 26.7 | 24.4 | 21.4 | 11.6
13 | COc1cc2c(cc1OC)C1=Cc3cc(OC)c(OC)cc3C(C)N1C=C2 (configuration not stated) | – | > 100 | > 100 | > 100 | > 100 | > 100 | > 100
14 | COc1ccc(-n2c(=O)c3[nH]cnc3n(-c3ccc(OC)cc3)c2=S)cc1 | > 100 | > 100 | > 100 | > 100 | > 100 | > 100 | > 100
15 | COc1ccc(N2C(=O)C3c4[nH]c5ccc(OCc6ccccc6)cc5c4C4CCC(C(C)(C)C)CC4C3C2=O)cc1 (configuration not stated) | > 100 | > 100 | > 100 | > 100 | > 100 | > 100 | > 100
16 | OCCCCCNc1c2ccccc2nc2ccccc12 | 8.31 | 25.3 | 6.68 | 12.2 | 10.2 | 9.34 | 9.05
17 | Cc1ccc(-c2c(C#N)c(-c3ccccc3)n(NS(=O)(=O)c3ccccc3)c(=O)c2C#N)cc1 | > 100 | – | > 100 | > 100 | > 100 | > 100 | > 100
18 | O=C(CCCCCCCCC(=O)NN1C(=O)/C(=C\c2ccc(O)c(O)c2)SC1c1ccc(Cl)cc1)NN1C(=O)/C(=C\c2ccc(O)c(O)c2)SC1c1ccc(Cl)cc1 (configuration not stated) | > 88.1 | 81.1 | 31.5 | > 29.5 | > 100 | > 100 | 43.8
19 | c1ccc2c(c1)OC(N1CCCC1)c1cnc(N3CCCC3)nc1-2 (configuration not stated) | 78 | > 100 | > 100 | – | > 100 | > 100 | > 100
20 | CC(C)(C)C1=C(Br)C(Br)(C(C)(C)C)OP1(=O)c1ccccc1 (configuration not stated) | > 100 | > 100 | > 100 | > 100 | > 100 | > 100 | > 100
21 | CC[C@]1(Cc2ccc(OC)c(OC)c2)CN(S(=O)(=O)c2ccc(C)cc2)C[C@@H]1OC(C)=O | > 100 | > 100 | > 100 | > 100 | > 100 | – | > 100
22 | CC(=O)OCC(C)C1=C(O)C(=O)C2(C)C/C=C(/C)CC/C=C(\C)CCC(O)C(C)CCC12 (configuration not stated) | 35.5 | 31.7 | 32.8 | 33 | 31.6 | 34.1 | 31
23 | C=C(C)C12CC(COC(=O)c3ccccc3)C34OC5(OC1C3C1OC1(CO)C(O)C1(O)C(OC(=O)c3ccccc3)C(C)C(C(C)CCCCCCC5O)C14)O2 (configuration not stated) | > 100 | > 100 | – | > 100 | > 100 | > 100 | > 100
24 | CCOc1cc(NC(C)=O)ccc1C(=O)NNC(=O)c1ccccc1OC(C)=O | > 50 | > 67.7 | > 100 | > 100 | > 89.4 | > 91.4 | > 80.7
25 | O=C(O)c1c2c(cc3c1CC1(Cc4ccccc4C1)C3)CCC2 | > 100 | > 100 | > 100 | > 100 | > 100 | > 100 | > 100
26 | O=C1/C(=C/c2ccccc2)N=C(c2ccccc2)N1n1c(-c2ccccc2)nc2ccccc2c1=O | – | > 100 | > 100 | > 100 | > 100 | > 100 | > 100
